Reference: patent US7989449B2, “4,5-dihydro-oxazol-2-yl amine derivatives” (Hoffman-La Roche Inc., priority 2008, dated 2011)
pIC50: −log10 of the molar value. Structures can show the parent of a compound that is named as a salt.

Target: T1, 6his-tagged full length BACE 1 from SF9 cells (Homo sapiens, UniProt P56817)
T1 construct: 6his-tagged full length BACE 1 from SF9 cells; made in house; host or cells: Sf9 insect cells
Experiment: BACE1 MR121 protease assay
Format: biochemical
Conditions: 30 nM 6his-BACE-1, 300 nM substrate peptide WSEVNLDAEFRC-MR121, Na-acetate pH 4.0, fluorescence
Procedure: Assay plate: 384 well microtiter plate, Corning clear, flat bottom, non binding surface
Assaybuffer: 100 mM Na-acetate pH 4.0, 20 mM EDTA, 0.05% BSA
BACE-1: 6his-tagged full length BACE 1 from SF9 cells
Substrate peptide: WSEVNLDAEFRC-MR121
BACE1 MR121 protease assay
39 μl of a 38 nM 6his-BACE-1 solution in assay buffer (final conc. in the assay: 30 nM) were pipetted into the assay plate. 1 μl of a concentration of a potential inhibitor in dimethylsulfoxide was added to the enzyme and incubated for 10 min. Finally, 10 μl of a 1.5 μM solution of the substrate in assay buffer (final conc. in the assay: 300 nM) was added to start the enzymatic reaction. After strong mixing for 2 min the enzymatic reaction was followed by measuring the fluorescence intensity every two minutes for 15 min on a suitable fluorescence reader. […] The slope was calculated from the linear part of the kinetic as a measure of the activity of BACE-1. A range of concentrations of the potential inhibitor was used to generate data for calculating the concentration of inhibitor resulting in 50% of the effect (e.g. IC50, the concentration of the compound inhibiting the BACE-1 activity by 50%).

T1 sequence (P56817 46-501): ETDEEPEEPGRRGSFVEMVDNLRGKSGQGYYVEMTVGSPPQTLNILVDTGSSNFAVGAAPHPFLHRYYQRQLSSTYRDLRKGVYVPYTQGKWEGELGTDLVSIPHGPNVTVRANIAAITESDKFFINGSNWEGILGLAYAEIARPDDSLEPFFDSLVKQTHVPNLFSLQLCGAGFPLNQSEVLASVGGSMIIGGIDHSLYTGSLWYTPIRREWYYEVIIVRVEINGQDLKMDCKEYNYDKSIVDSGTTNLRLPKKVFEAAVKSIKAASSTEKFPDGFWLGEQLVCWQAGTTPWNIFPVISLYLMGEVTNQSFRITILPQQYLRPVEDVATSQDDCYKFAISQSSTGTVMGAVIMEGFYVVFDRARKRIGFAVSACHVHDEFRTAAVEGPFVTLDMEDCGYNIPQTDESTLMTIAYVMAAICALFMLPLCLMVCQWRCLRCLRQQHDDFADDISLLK

Structure (SMILES) | pIC50
Cc1cc(C2(c3cccc(-c4cccnc4F)c3)COC(N)=N2)ccc1OC(F)F (racemic) [Example 98, (RS)-4-(4-Difluoromethoxy-3-methyl-phenyl)-4-[3-(2-fluoro-pyridin-3-yl)-phenyl]-4,5-dihydro-oxazol-2-ylamine formate] | 6.82
Cc1cc(C2(c3cccc(-c4cccc(Cl)c4)c3)COC(N)=N2)ccc1OC(F)F (racemic) [Example 99, (RS)-4-(3′-Chloro-biphenyl-3-yl)-4-(4-difluoromethoxy-3-methyl-phenyl)-4,5-dihydro-oxazol-2-ylamine formate] | 6.77
Cc1cc(C2(c3cccc(-c4cncnc4)c3)COC(N)=N2)ccc1OC(F)F (racemic) [Example 100, (RS)-4-(4-Difluoromethoxy-3-methyl-phenyl)-4-(3-pyrimidin-5-yl-phenyl)-4,5-dihydro-oxazol-2-ylamine formate] | 6.92
COc1cncc(-c2cccc(C3(c4ccc(OC(F)F)c(C)c4)COC(N)=N3)c2)c1 (racemic) [Example 101, (RS)-4-(4-Difluoromethoxy-3-methyl-phenyl)-4-[3-(5-methoxy-pyridin-3-yl)-phenyl]-4,5-dihydro-oxazol-2-ylamine formate] | 7.22
Cc1cc(C2(c3cccc(-c4cncc(F)c4)c3)COC(N)=N2)ccc1OC(F)F (racemic) [Example 102, (RS)-4-(4-Difluoromethoxy-3-methyl-phenyl)-4-[3-(5-fluoro-pyridin-3-yl)-phenyl]-4,5-dihydro-oxazol-2-ylamine formate] | 6.68
Cc1cncc(-c2cccc(C3(c4ccc(OC(F)F)c(C)c4)COC(N)=N3)c2)c1 (racemic) [Example 103, (RS)-4-(4-Difluoromethoxy-3-methyl-phenyl)-4-[3-(5-methyl-pyridin-3-yl)-phenyl]-4,5-dihydro-oxazol-2-ylamine formate] | 6.49
Cc1cnc(F)c(-c2cccc(C3(c4ccc(OC(F)F)c(C)c4)COC(N)=N3)c2)c1 (racemic) [Example 104, (RS)-4-(4-Difluoromethoxy-3-methyl-phenyl)-4-[3-(2-fluoro-5-methyl-pyridin-3-yl)-phenyl]-4,5-dihydro-oxazol-2-ylamine formate] | 6.89
COc1ccc(F)c(-c2cccc(C3(c4ccc(OC(F)F)c(C)c4)COC(N)=N3)c2)c1 (racemic) [Example 105, (RS)-4-(4-Difluoromethoxy-3-methyl-phenyl)-4-(2′-fluoro-5′-methoxy-biphenyl-3-yl)-4,5-dihydro-oxazol-2-ylamine formate] | 6.89
COc1cncc(-c2cccc(C3(c4ccc(OC(F)F)c(Cl)c4)COC(N)=N3)c2)c1 (racemic) [Example 117, (RS)-4-(3-Chloro-4-difluoromethoxy-phenyl)-4-[3-(5-methoxy-pyridin-3-yl)-phenyl]-4,5-dihydro-oxazol-2-ylamine formate] | 7.10
NC1=NC(c2cccc(-c3cncnc3)c2)(c2ccc(OC(F)F)c(Cl)c2)CO1 (racemic) [Example 118, (RS)-4-(3-Chloro-4-difluoromethoxy-phenyl)-4-(3-pyrimidin-5-yl-phenyl)-4,5-dihydro-oxazol-2-ylamine formate] | 6.70
Cc1cc(C2(c3ccc(F)c(-c4cccnc4)c3)COC(N)=N2)ccc1OC(F)F (racemic) [Example 119, (RS)-4-(4-Difluoromethoxy-3-methyl-phenyl)-4-(4-fluoro-3-pyridin-3-yl-phenyl)-4,5-dihydro-oxazol-2-ylamine formate] | 6.89
COc1ccc(F)c(-c2cc(C3(c4ccc(OC(F)F)c(C)c4)COC(N)=N3)ccc2F)c1 (racemic) [Example 123, (RS)-4-(6,2′-Difluoro-5′-methoxy-biphenyl-3-yl)-4-(4-difluoromethoxy-3-methyl-phenyl)-4,5-dihydro-oxazol-2-ylamine formate] | 6.70
Cc1cc(OC(F)F)ccc1C1(c2cccc(-c3cncnc3)c2)COC(N)=N1 (racemic) [Example 129, (RS)-4-(4-Difluoromethoxy-2-methyl-phenyl)-4-(3-pyrimidin-5-yl-phenyl)-4,5-dihydro-oxazol-2-ylamine formate] | 6.30

The remaining lines, values ahead:

pIC50 | Structure (SMILES)
6.54 | COc1ccc(C2(c3ccc(F)c(-c4cncc(Cl)c4)c3)COC(N)=N2)cc1Cl (racemic) [Example 108, (RS)-4-(3-Chloro-4-methoxy-phenyl)-4-[3-(5-chloro-pyridin-3-yl)-4-fluoro-phenyl]-4,5-dihydro-oxazol-2-ylamine formate]
6.11 | COc1ccc(C2(c3ccc(F)c(-c4cccnc4)c3)COC(N)=N2)cc1Cl (racemic) [Example 109, (RS)-4-(3-Chloro-4-methoxy-phenyl)-4-(4-fluoro-3-pyridin-3-yl-phenyl)-4,5-dihydro-oxazol-2-ylamine formate]
6.80 | COc1cncc(-c2cc(C3(c4ccc(OC)c(Cl)c4)COC(N)=N3)ccc2F)c1 (racemic) [Example 111, (RS)-4-(3-Chloro-4-methoxy-phenyl)-4-[4-fluoro-3-(5-methoxy-pyridin-3-yl)-phenyl]-4,5-dihydro-oxazol-2-ylamine formate]
6.19 | COc1ccc(C2(c3ccc(F)c(-c4cncc(F)c4)c3)COC(N)=N2)cc1Cl (racemic) [Example 112, (RS)-4-(3-Chloro-4-methoxy-phenyl)-4-[4-fluoro-3-(5-fluoro-pyridin-3-yl)-phenyl]-4,5-dihydro-oxazol-2-ylamine]
6.14 | COc1ccc(C2(c3ccc(F)c(-c4cc(C)cnc4F)c3)COC(N)=N2)cc1Cl (racemic) [Example 113, (RS)-4-(3-Chloro-4-methoxy-phenyl)-4-[4-fluoro-3-(2-fluoro-5-methyl-pyridin-3-yl)-phenyl]-4,5-dihydro-oxazol-2-ylamine]
6.18 | COc1ccc(F)c(-c2cc(C3(c4ccc(OC)c(Cl)c4)COC(N)=N3)ccc2F)c1 (racemic) [Example 114, (RS)-4-(3-Chloro-4-methoxy-phenyl)-4-(6,2′-difluoro-5′-methoxy-biphenyl-3-yl)-4,5-dihydro-oxazol-2-ylamine formate]
6.62 | NC1=NC(c2cccc(-c3cncc(Cl)c3)c2)(c2ccc(OC(F)F)c(F)c2)CO1 (racemic) [Example 115, (RS)-4-[3-(5-Chloro-pyridin-3-yl)-phenyl]-4-(4-difluoromethoxy-3-fluoro-phenyl)-4,5-dihydro-oxazol-2-ylamine formate]
7.05 | Cc1cc(C2(c3ccc(F)c(-c4cncnc4)c3)COC(N)=N2)ccc1OC(F)F (racemic) [Example 120, (RS)-4-(4-Difluoromethoxy-3-methyl-phenyl)-4-(4-fluoro-3-pyrimidin-5-yl-phenyl)-4,5-dihydro-oxazol-2-ylamine formate]
7.30 | COc1cncc(-c2cc(C3(c4ccc(OC(F)F)c(C)c4)COC(N)=N3)ccc2F)c1 (racemic) [Example 121, (RS)-4-(4-Difluoromethoxy-3-methyl-phenyl)-4-[4-fluoro-3-(5-methoxy-pyridin-3-yl)-phenyl]-4,5-dihydro-oxazol-2-ylamine formate]
6.82 | Cc1cc(C2(c3ccc(F)c(-c4cncc(F)c4)c3)COC(N)=N2)ccc1OC(F)F (racemic) [Example 122, (RS)-4-(4-Difluoromethoxy-3-methyl-phenyl)-4-[4-fluoro-3-(5-fluoro-pyridin-3-yl)-phenyl]-4,5-dihydro-oxazol-2-ylamine formate]
